# Literature values as cited in US20240398684A1, “HIGH UV PROTECTION CLEANSING COMPOSITION” (Conopco, Inc., d/b/a UNILEVER, priority 2020, published 2024).
# Settings: Reference: Photochem. Photobiol. Sci., 2010,9, 464-469
row,absorption maxima [nm],SMILES
1,345,"CC1(C)C2CCC1(CS(=O)(=O)O)C(=O)C2=Cc1ccc(C=C2C(=O)C3(CS(=O)(=O)O)CCC2C3(C)C)cc1 [TDSA, Terephthalylidene dicamphor sulfonic acid]"
2,302,"O=S(=O)(O)c1ccc2[nH]c(-c3ccccc3)nc2c1 [PBSA, Phenyl benzimidazole sulphonic acid]"

row,SMILES,absorption maxima [nm]
1,"O=S(=O)([O-])c1cc(S(=O)(=O)O)cc2[nH]c(-c3ccc(-c4nc5c(S(=O)(=O)[O-])cc(S(=O)(=O)O)cc5[nH]4)cc3)nc12.[Na+].[Na+] [BD, Di sodium phenyl dibenzimidazole tetra sulfonate]",335
